Six molecules from ChEMBL document CHEMBL1148363, “New, non-adenosine, high-potency agonists for the human adenosine A2B receptor with an improved selectivity profile compared to the reference agonist N-ethylcarboxamidoadenosine” (J Med Chem, 2004) can be followed below.

For experiment [1], the target named is T1, Adenosine receptor A2b (Homo sapiens) (UniProt P29275).
T1 sequence (whole entry): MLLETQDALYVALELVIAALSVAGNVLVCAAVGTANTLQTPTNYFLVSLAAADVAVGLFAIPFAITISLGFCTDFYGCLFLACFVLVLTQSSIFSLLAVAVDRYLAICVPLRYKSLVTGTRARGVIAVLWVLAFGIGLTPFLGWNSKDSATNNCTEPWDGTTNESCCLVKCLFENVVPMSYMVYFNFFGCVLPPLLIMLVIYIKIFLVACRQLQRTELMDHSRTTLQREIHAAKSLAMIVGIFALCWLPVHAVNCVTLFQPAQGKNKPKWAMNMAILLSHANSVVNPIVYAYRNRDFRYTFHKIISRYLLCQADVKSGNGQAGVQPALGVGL
Description: Stimulation of human adenosine A2B receptor in production of cAMP in CHO cells. The experiment is classed as functional, cell-based.

The target in another experiment is T2, Adenosine receptor A1 (Homo sapiens, UniProt P30542).
T2 sequence (P30542 whole entry): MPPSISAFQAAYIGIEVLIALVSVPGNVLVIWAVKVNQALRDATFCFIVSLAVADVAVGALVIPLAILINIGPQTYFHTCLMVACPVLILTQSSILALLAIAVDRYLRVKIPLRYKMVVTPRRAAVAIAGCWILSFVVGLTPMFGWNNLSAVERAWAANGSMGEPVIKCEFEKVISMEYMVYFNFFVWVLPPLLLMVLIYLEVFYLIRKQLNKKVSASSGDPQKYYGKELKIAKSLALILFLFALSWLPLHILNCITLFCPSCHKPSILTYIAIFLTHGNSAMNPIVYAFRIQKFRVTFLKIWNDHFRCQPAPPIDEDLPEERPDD
Description: Binding affinity against human adenosine A1 receptor expressed in CHO cells using [3H]DPCPX. The format is cell-based.

The next experiment concerns the target T3, Adenosine receptor A3 (Homo sapiens, UniProt P0DMS8).
T3 sequence (P0DMS8 whole entry): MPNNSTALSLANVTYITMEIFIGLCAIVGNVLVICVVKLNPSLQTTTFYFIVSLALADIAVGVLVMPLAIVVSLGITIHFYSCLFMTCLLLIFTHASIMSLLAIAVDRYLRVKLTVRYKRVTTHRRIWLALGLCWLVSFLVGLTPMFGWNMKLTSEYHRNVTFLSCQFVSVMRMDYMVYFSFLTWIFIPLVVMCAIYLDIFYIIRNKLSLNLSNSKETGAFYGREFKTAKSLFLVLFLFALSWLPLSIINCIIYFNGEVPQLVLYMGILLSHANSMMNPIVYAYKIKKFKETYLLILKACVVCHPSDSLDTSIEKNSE
As to the kind of experiment: Binding affinity against human adenosine A3 receptor expressed on HEK293 cells using [125I]I-AB-MECA. The format is cell-based.

Experiment [2] concerns the target T4, Adenosine receptor A3 (Homo sapiens) (UniProt P0DMS8).
T4 sequence (whole entry): T3 sequence (P0DMS8 whole entry)
As to the kind of experiment: Inhibition of human adenosine A3 receptor in production of cAMP in CHO cells. The experiment is classed as functional, cell-based.

Experiment [3] has as its target T5, Adenosine receptor A1 (Homo sapiens) (UniProt P30542).
T5 sequence (whole entry): T2 sequence (P30542 whole entry)
Description: Inhibition of human adenosine A1 receptor in production of cAMP in CHO cells. The experiment is classed as functional, cell-based.

For a further experiment, the target named is T6, Adenosine receptor A2b (Homo sapiens, UniProt P29275).
T6 sequence (P29275 whole entry): T1 sequence (whole entry)

The target of another experiment is Adenosine receptor A2a (Homo sapiens, UniProt P29274). As to the kind of experiment: biochemical.
Sequence of Adenosine receptor A2a (P29274 whole entry): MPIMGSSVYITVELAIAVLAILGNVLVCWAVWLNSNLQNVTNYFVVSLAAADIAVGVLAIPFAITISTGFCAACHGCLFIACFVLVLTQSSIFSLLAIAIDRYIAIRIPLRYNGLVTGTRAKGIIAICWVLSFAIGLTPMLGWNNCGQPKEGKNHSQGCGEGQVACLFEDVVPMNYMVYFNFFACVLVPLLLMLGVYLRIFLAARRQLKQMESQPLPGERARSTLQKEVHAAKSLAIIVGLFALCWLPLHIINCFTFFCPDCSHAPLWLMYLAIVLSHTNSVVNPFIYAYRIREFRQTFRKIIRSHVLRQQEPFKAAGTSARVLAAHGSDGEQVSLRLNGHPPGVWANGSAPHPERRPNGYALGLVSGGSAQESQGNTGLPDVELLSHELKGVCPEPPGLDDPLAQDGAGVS
Another experiment has as its system CHO. As to the kind of experiment: cells. The conditions noted are these: Cricetulus griseus, read-out: pA2 (converted).

By Ki is commonly meant a dissociation constant, usually derived from enzyme kinetics or from competition with a known ligand. Lower therefore signals higher affinity. By EC50 is commonly meant the concentration giving half of the maximal effect. A low value points to an effect from little substance.

Description for Adenosine receptor A2a: Binding affinity against human adenosine A2A receptor expressed in HEK293 cells using [3H]ZM-241385

Regarding `N#Cc1c(N)nc(SCc2ncc[nH]2)c(C#N)c1-c1ccc(O)cc1`, the Efficacy is 74% in experiment [1], 23% in experiment [2] and 103% in experiment [3]. For the same molecule, the Ki on Adenosine receptor A1 was 2.6 nM; on Adenosine receptor A3, 538 nM; on Adenosine receptor A2a, 28 nM. On Adenosine receptor A2b, the EC50 was 12 nM.
`N#Cc1c(N)nc(SCc2ncc[nH]2)c(C#N)c1-c1cccc(O)c1`: the Efficacy is 92% in experiment [1], 95% in experiment [2] and 112% in experiment [3]. In addition, the figures for the Ki on Adenosine receptor A1, on Adenosine receptor A3 and on Adenosine receptor A2a were 4.4 nM, 104 nM and 21 nM, respectively. This molecule also displayed an EC50 on Adenosine receptor A2b of 10 nM.
Take `N#Cc1c(N)nc(SCc2ncc[nH]2)c(C#N)c1-c1ccccc1`: the Efficacy in experiment [1] worked out at 81%; in experiment [2], 84%; in experiment [3], 109%.
Regarding `Nc1nc2ccc(Cl)cc2c2nc(-c3ccco3)nn12` [CGS-15943], the Kb with CHO is 5.01 nM.
As to `COc1cccc(-c2c(C#N)c(N)nc(SCc3ncc[nH]3)c2C#N)c1`, the values for the Efficacy in experiment [1], in experiment [2] and in experiment [3] were 68%, 39% and 80%, respectively. For the same molecule, the Ki on Adenosine receptor A1 came to 2 nM; on Adenosine receptor A3, 74 nM; at Adenosine receptor A2a, 105 nM. Moreover, the midpoint of the response on Adenosine receptor A2b, the EC50, lay at 34 nM.
`COc1ccc(-c2c(C#N)c(N)nc(SCc3ncc[nH]3)c2C#N)cc1`: the Efficacy was determined as 33% in experiment [1], 73% in experiment [2] and 46% in experiment [3]. Further, the Ki was determined as 7 nM at Adenosine receptor A1 and 214 nM at Adenosine receptor A2a. On Adenosine receptor A2b, this molecule had an EC50 of 9 nM.
